# According to patent US20250171474A1, “CRYSTAL FORM OF […]” (Zhejiang Yangli Pharmaceutical Technology Co., Ltd., priority 2022, published 2025):
# Experiments:
# [1] = tested on: HepG2-luc orthotopic xenograft tumor; assay: In vivo pharmacodynamics on orthotopic xenograft tumor model of human liver cancer HepG2; design: species or system Balb/C nude mice; settings: for Bioluminescence (Day 1) / Bioluminescence (Day 21): mean, n=6 (Table 8); for Bioluminescence (Day 21) / RBL (Day 21), relative tumor signal growth value / T/C (%) (Day 21) / TGI (%) (Day 21) / T/Cweight (%) / Tumor weight (Day 21): Day 21; for T/Cweight (%): TWtreatment/TWvehicle; for Tumor weight (Day 21): mean ± SEM, n=6
# Experimental: In this experiment, orthotopic xenograft tumor model of HepG2 in a nude mouse was used to evaluate the anti-tumor effect of the compound.
# Female Balb/C nude mice, 6 to 8 weeks old, weighing 18 to 22 g, fetal bovine serum […], EMEM medium (Cat. No. 30-2003), phosphate buffer, Antibiotic-Antimycotic (Cat. No. 15240-062), Matrigel, and trypsin.
# 1. Preparation of cell culture: HepG2-luc cells were cultured in monolayer in vitro. The culture conditions were that 10% heat-inactivated fetal bovine serum was added to EMEM medium and the cells were cultured in an incubator containing 5% CO2 at 37° C. Digestion with trypsin-EDTA was performed twice a week for passaging. When the cell saturation was 80% to 90%, the cells were digested with trypsin-EDTA, counted, and resuspended in PBS and Matrigel (PBS: Matrigel=1:1), and the density was 166.67×10^6 cells/mL.
# 2. Tumor cell inoculation and grouping: Animals were anesthetized by intramuscular injection of 60 mg/kg Zoletil 50 and 1.5 mg/kg xylazine. When the animals were under deep anesthesia, the animals were properly fixed, and the abdomen skin was cleaned with 75% alcohol cotton balls. An incision of about 10 mm was cut with surgery, and 0.03 mL (PBS: Matrigel=1:1) of HepG2-luc cells was orthotopically inoculated on the left lobe of the liver of each mouse, and then the incision on the muscle layer was sutured with absorbable catgut, and the incision on the skin was sutured with a stapler. After surgery, the animals were kept warm on a warming blanket until they woke up. To relieve the pain of the animals, 2 mg/kg of meloxicam (administered subcutaneously once a day) would be administered for 3 consecutive days after surgery. 15 animals were randomly selected to detect the growth of the signal. When the signal began to rise, animals were randomly divided into groups according to the value of the bioluminescence signal, and the administration of the drug was started.
# (§1) The experimental indicator is whether the tumor growth can be delayed or whether the tumor can be cured. After tumor inoculation, the bioluminescence signal and animal weight were detected once a week, which continued until the end of the observation period. The bioluminescence signal value can be used to calculate T/C (wherein T is the administration group, and C is the average intensity value of bioluminescence of the blank control group at the set time). Calculation formula of tumor growth inhibition rate (TGI): TGI (%)=[1−(Ti−T0)/(Vi−V0)]×100, wherein Ti is the average intensity of bioluminescence of the treatment group at the set time; T0 is the average intensity of bioluminescence at the starting point of administration. Vi is the average intensity of bioluminescence of the blank control group at the set time; V0 is the average intensity of bioluminescence at the starting point of administration.
# b. Tumor growth inhibition was calculated by T/Cweight=TWtreatment/TWvehicle.
# c. The p values were obtained by analyzing the tumor weight using one-way ANOVA between the vehicle group and the treatment groups.
# HepG2 cells = assay: Anti-proliferative activity on HepG2 cell line (CellTiter-Glo); assay type: cell-based, human
# Experimental: (§2) DMEM medium, penicillin/streptomycin antibiotics were purchased from Wisent, and fetal bovine serum was purchased from Biosera. CellTiter-Glo (chemiluminescent cell viability assay reagent) reagent was purchased from Promega. The HepG2 cell line was purchased from the Cell Bank of the Chinese Academy of Sciences. Nivo multimode microplate reader (PerkinElmer).
# HepG2 cells (liver cancer) were seeded in a white 384-well plate with […] of cell suspension per well containing 1000 HepG2 cells. The cell plate was incubated overnight in a carbon dioxide incubator. The compound to be tested was 3-fold diluted to the ninth concentration with a multi-channel pipette, that is, the compound to be tested was diluted from 200 µM to 30 nM, and an experiment for the sample assayed in duplicate was set up. […] of culture medium was added to the middle plate. According to the corresponding position, […] per well of the gradient-diluted compound was transferred to the middle plate, then […] per well was transferred to the cell plate after mixing well. […] Another cell plate was prepared, and the signal value as the maximum value (Max value in the following equation) was read on the day of drug addition to participate in data analysis. […] A multimode microplate reader was used for reading. […] A multimode microplate reader was used for reading. […]
# Hep3B cells = assay: Anti-proliferative activity on Hep3B cell line (CellTiter-Glo); assay type: cell-based
# Experimental: as §2, with “EMEM” for “DMEM”, “Hep3B” for “HepG2”
# Hep3B cells (liver cancer) were seeded in a white 96-well plate with 80 μL of cell suspension per well containing 3000 Hep3B cells. The cell plate was incubated overnight in a carbon dioxide incubator. The compound to be tested was 5-fold diluted to the ninth concentration with a multi-channel pipette, that is, the compound to be tested was diluted from 2 mM to 5.12 nM, and an experiment for the sample assayed in duplicate was set up. 78 μL of culture medium was added to the middle plate. According to the corresponding position, 2 µL per well of the gradient-diluted compound was transferred to the middle plate, then 20 μL per well was transferred to the cell plate after mixing well. […] Another cell plate was prepared, and the signal value as the maximum value (Max value in the following equation) was read on the day of drug addition to participate in data analysis. […] A multimode microplate reader was used for reading. […] A multimode microplate reader was used for reading. […]
# [2] = Animal weight change in the HepG2 orthotopic xenograft model; assay type: in vivo, Balb/C nude mice; settings: 1 and 3 mg/kg IV
# Text: as §1
# [3] = Group 2, 1 mg/kg IV Day 0, 7, 14
# [4] = Group 3, 3 mg/kg IV Day 0, 7, 14
smiles,measurement,setting,value
O=[N+]([O-])c1cc2c(cc1Oc1cccnc1F)[C@H](OP(=O)(N1CC1)N1CC1)COC2 [Compound of formula (I)],inhibitory effect on tumor growth (in words),"[1]; 1 mg/kg, after 21 days of administration",significant inhibitory effect on tumor growth
same,Bioluminescence (Day 1),[1]; [3],3.51E+09 photons/second
same,Bioluminescence (Day 21),[1]; [3],4.35E+09 photons/second
same,Bioluminescence signal value of tumor tissue,"[1]; Group 2, 1 mg/kg IV, 0 days after administration (Table 10)",1.47E+09 photons/second
same,Bioluminescence signal value of tumor tissue,"[1]; Group 2, 1 mg/kg IV, 7 days after administration (Table 10)",4.34E+09 photons/second
same,Bioluminescence signal value of tumor tissue,"[1]; Group 2, 1 mg/kg IV, 14 days after administration (Table 10)",4.76E+09 photons/second
same,Bioluminescence signal value of tumor tissue,"[1]; Group 2, 1 mg/kg IV, 21 days after administration (Table 10)",4.52E+09 photons/second
same,"RBL (Day 21), relative tumor signal growth value","[1]; Group 2, 1 mg/kg IV",0.98
same,T/C (%) (Day 21),"[1]; Group 2, 1 mg/kg IV",10.04%
same,TGI (%) (Day 21),"[1]; Group 2, 1 mg/kg IV",96.97%
same,T/Cweight (%),"[1]; Group 2, 1 mg/kg IV",15.80%
same,Tumor weight (Day 21),"[1]; Group 2, 1 mg/kg IV",0.090 ± 0.036 g
same,Bioluminescence (Day 1),[1]; [4],3.51E+09 photons/second
same,Bioluminescence (Day 21),[1]; [4],1.81E+09 photons/second
same,Bioluminescence signal value of tumor tissue,"[1]; Group 3, 3 mg/kg IV, 0 days after administration (Table 10)",1.47E+09 photons/second
same,Bioluminescence signal value of tumor tissue,"[1]; Group 3, 3 mg/kg IV, 7 days after administration (Table 10)",2.77E+09 photons/second
same,Bioluminescence signal value of tumor tissue,"[1]; Group 3, 3 mg/kg IV, 14 days after administration (Table 10)",2.59E+09 photons/second
same,Bioluminescence signal value of tumor tissue,"[1]; Group 3, 3 mg/kg IV, 21 days after administration (Table 10)",2.16E+09 photons/second
same,"RBL (Day 21), relative tumor signal growth value","[1]; Group 3, 3 mg/kg IV",0.41
same,T/C (%) (Day 21),"[1]; Group 3, 3 mg/kg IV",4.22%
same,TGI (%) (Day 21),"[1]; Group 3, 3 mg/kg IV",106.21%
same,T/Cweight (%),"[1]; Group 3, 3 mg/kg IV",10.23%
same,Tumor weight (Day 21),"[1]; Group 3, 3 mg/kg IV",0.058 ± 0.013 g
same,"inhibitory effect on tumor growth (conclusion, in words)","[1]; HepG2 orthotopic model, 1 and 3 mg/kg IV",significant inhibitory effect on tumor growth
same,anti-tumor effect (in words),[1]; dose increased to 3 mg/kg,significantly enhanced
same,anti-proliferative activity on HepG2 (in words),HepG2 cells; HepG2 with high expression of AKR1C3,excellent anti-proliferative activity
same,IC50,"HepG2 cells; Homo sapiens, 120 h, HepG2 (high expression of AKR1C3), 5 days incubation",7.4 nM
same,anti-proliferative activity on Hep3B (in words),Hep3B cells; Hep3B with low expression of AKR1C3,no anti-proliferative activity
same,IC50,"Hep3B cells; Homo sapiens, 72 h, Hep3B (low expression of AKR1C3), 3 days incubation",> 10000 nM
same,animal weight in the administration group (in words),[2],does not decrease significantly
